Data reported in ChEMBL document CHEMBL1201862, “PubChem BioAssay data set” (2004).
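1) Cells in 96-well plates. 2) Compound, 48 h, 5 concentrations. 3) Linear interpolation between surrounding doses. 4) Unreached endpoint = highest concentration. Here, GI50 denotes the concentration required for 50% inhibition of growth.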 Calls of active or inactive are those of the source. Cut-off read from the data, not from the text of the source: active = GI50 up to about 1.1 µM and inactive = higher.

Columns and labels:
Assay in all cases: DTP human tumour cell line panel, 48 h
CAKI-1 = system: CAKI-1
COLO 205 = system: COLO 205
HCT-116 = system: HCT-116
IGROV-1 = system: IGROV-1
M14 = system: M14
MDA-MB-231 = system: MDA-MB-231
NCI-H23 = system: NCI-H23
OVCAR-3 = system: OVCAR-3
OVCAR-5 = system: OVCAR-5
PC-3 = system: PC-3
RXF 393 = system: RXF 393
SK-MEL-2 = system: SK-MEL-2
SNB-19 = system: SNB-19
TK-10 = system: TK-10
UACC-62 = system: UACC-62
HOP-92 = system: HOP-92
LOX IMVI = system: LOX IMVI
OVCAR-4 = system: OVCAR-4
SR = system: SR
MDA-MB-435 = system: MDA-MB-435

Row | SMILES | GI50 (CAKI-1) | GI50 (COLO 205) | GI50 (HCT-116) | GI50 (IGROV-1) | GI50 (M14) | GI50 (MDA-MB-231) | GI50 (NCI-H23) | GI50 (OVCAR-3) | GI50 (OVCAR-5) | GI50 (PC-3) | GI50 (RXF 393) | GI50 (SK-MEL-2) | GI50 (SNB-19) | GI50 (TK-10) | GI50 (UACC-62) | GI50 (HOP-92) | GI50 (LOX IMVI) | GI50 (OVCAR-4) | GI50 (SR) | GI50 (MDA-MB-435)
1 | CCOC(=O)c1c(N=C(S)Nc2ccccc2)sc2c1CCN(C)C2 | > 100 µM (inactive) | > 100 µM (inactive) | > 100 µM (inactive) | > 100 µM (inactive) | > 100 µM (inactive) | > 100 µM (inactive) | > 100 µM (inactive) | > 100 µM (inactive) | > 100 µM (inactive) | > 100 µM (inactive) | > 100 µM (inactive) | > 100 µM (inactive) | > 100 µM (inactive) | > 100 µM (inactive) | > 100 µM (inactive) |  |  |  |  | 
2 | O=C(N/C(=C\c1cc(Cl)ccc1Cl)c1nc2cc(Cl)ccc2[nH]1)c1ccccc1 | 22 µM (inactive) | 18.8 µM (inactive) | 10.5 µM (inactive) | 13.1 µM (inactive) | 17.1 µM (inactive) |  | 13 µM (inactive) | 15.2 µM (inactive) | 21.2 µM (inactive) |  | 15.4 µM (inactive) | 13.7 µM (inactive) | 22.4 µM (inactive) | 3.78 µM (inactive) | 11.4 µM (inactive) | 11.6 µM (inactive) | 13.6 µM (inactive) | 25.8 µM (inactive) | 5.43 µM (inactive) | 
3 | O=C(c1cccs1)N(C(=S)N1CCN(c2ccccn2)CC1)c1ccccc1 | 76 µM (inactive) | > 100 µM (inactive) | 56.2 µM (inactive) | > 100 µM (inactive) | 76.7 µM (inactive) |  | > 100 µM (inactive) | > 100 µM (inactive) | > 100 µM (inactive) |  | 35 µM (inactive) | 57.4 µM (inactive) | > 100 µM (inactive) | > 100 µM (inactive) | 46.5 µM (inactive) | > 100 µM (inactive) | > 100 µM (inactive) | > 100 µM (inactive) | > 100 µM (inactive) | 
4 | COc1ccc(NC(=O)CC(=O)N2N=C(N(CCC#N)c3ccccc3Cl)CC2c2ccccc2)cc1 (centres undefined) | > 100 µM (inactive) | > 100 µM (inactive) | > 100 µM (inactive) | > 100 µM (inactive) | > 100 µM (inactive) |  | > 100 µM (inactive) | > 100 µM (inactive) | > 100 µM (inactive) |  | > 100 µM (inactive) | > 100 µM (inactive) | > 100 µM (inactive) | > 100 µM (inactive) | > 100 µM (inactive) | > 100 µM (inactive) | > 100 µM (inactive) | > 100 µM (inactive) | > 100 µM (inactive) | 
5 | O=C(O)C(CO)NC(=O)n1c2ccccc2c2ccccc21 (centres undefined) | > 100 µM (inactive) | > 100 µM (inactive) | > 100 µM (inactive) | > 100 µM (inactive) |  |  | > 100 µM (inactive) | > 100 µM (inactive) |  |  | > 100 µM (inactive) | > 100 µM (inactive) | > 100 µM (inactive) | > 100 µM (inactive) | > 100 µM (inactive) | > 100 µM (inactive) | > 100 µM (inactive) |  | > 100 µM (inactive) | 
6 | CC(C)=CC1(C)/C(=N\O)C(C)(CC(C)C)C(=O)N1O (centres undefined) | > 100 µM (inactive) | > 100 µM (inactive) | > 100 µM (inactive) | > 100 µM (inactive) | > 100 µM (inactive) |  | > 100 µM (inactive) | > 100 µM (inactive) | > 100 µM (inactive) |  | > 100 µM (inactive) | > 100 µM (inactive) | > 100 µM (inactive) | > 100 µM (inactive) | > 100 µM (inactive) | > 100 µM (inactive) | > 100 µM (inactive) | > 100 µM (inactive) | > 100 µM (inactive) | 
7 | OCCCC(O)(c1ccccc1)c1ccccc1 |  |  |  | > 100 µM (inactive) | > 100 µM (inactive) |  | > 100 µM (inactive) | > 100 µM (inactive) | > 100 µM (inactive) | > 100 µM (inactive) | > 100 µM (inactive) | > 100 µM (inactive) | > 100 µM (inactive) | > 100 µM (inactive) | > 100 µM (inactive) |  | > 100 µM (inactive) | > 100 µM (inactive) | > 100 µM (inactive) | > 100 µM (inactive)
8 | C[C@@](Br)(C(=O)O)[C@H](Br)C(=O)O | 55.5 µM (inactive) | > 100 µM (inactive) | > 100 µM (inactive) | > 100 µM (inactive) | > 100 µM (inactive) | > 100 µM (inactive) | > 100 µM (inactive) | > 100 µM (inactive) | > 100 µM (inactive) | > 100 µM (inactive) | > 100 µM (inactive) |  | > 100 µM (inactive) | > 100 µM (inactive) | > 100 µM (inactive) | > 100 µM (inactive) | > 100 µM (inactive) | > 100 µM (inactive) |  | > 100 µM (inactive)
9 | Cc1ccc(Cl)c2c(=O)cc(-c3ccccc3)[nH]c12 | 84.9 µM (inactive) | > 100 µM (inactive) | 58.5 µM (inactive) | 85.3 µM (inactive) | 43 µM (inactive) |  | 59.7 µM (inactive) |  | 71.6 µM (inactive) |  | 29.2 µM (inactive) | 47.9 µM (inactive) |  | 70.6 µM (inactive) | 42.5 µM (inactive) | 38.8 µM (inactive) | 39.7 µM (inactive) | 55.3 µM (inactive) | 25.1 µM (inactive) | 
10 | CC(=O)CC(=O)c1cc2c(=O)oc(C)cc2oc1=O | > 37.5 µM (inactive) | > 37.5 µM (inactive) | > 37.5 µM (inactive) | > 37.5 µM (inactive) | > 37.5 µM (inactive) |  | > 37.5 µM (inactive) | > 37.5 µM (inactive) | > 37.5 µM (inactive) | > 37.5 µM (inactive) | > 37.5 µM (inactive) | > 37.5 µM (inactive) | > 37.5 µM (inactive) | > 37.5 µM (inactive) | > 37.5 µM (inactive) |  |  | > 37.5 µM (inactive) | > 37.5 µM (inactive) | 
11 | COC(=O)[C@@]12OC[C@]34C([C@@H](O)C1O)[C@@]1(C)CC(=O)C(OC(=O)CC(C)C(F)(F)F)=C(C)C1C[C@H]3OC(=O)[C@H](O)[C@H]42 (some centres undefined) | 9.4 µM (inactive) | 6.81 µM (inactive) | 2.47 µM (inactive) | 2.22 µM (inactive) | 1.99 µM (inactive) |  | 1.38 µM (inactive) |  | 19.6 µM (inactive) |  | 4.62 µM (inactive) | 2.95 µM (inactive) | 0.809 µM (active) | 5.51 µM (inactive) | 1.12 µM (active) | 0.887 µM (active) |  | 14.7 µM (inactive) | 2.73 µM (inactive) | 
12 | COC(=O)C1=C(\c2ccccc2)c2ccccc2C(=O)N(C2CCCCC2)/C=C\1 | 20.9 µM (inactive) | 14.5 µM (inactive) | 19.4 µM (inactive) | 25.8 µM (inactive) | 28.6 µM (inactive) | 17.2 µM (inactive) | 17.1 µM (inactive) | 21.7 µM (inactive) | 72.9 µM (inactive) | 10.5 µM (inactive) |  | 12.9 µM (inactive) | 29 µM (inactive) | 41.3 µM (inactive) |  | 14.9 µM (inactive) | 14.2 µM (inactive) | 27.7 µM (inactive) |  | 17.9 µM (inactive)
13 | CC1=C(C(=O)Nc2ccccc2C)C(c2ccco2)C(C(=O)Nc2ccccc2C)=C(C)N1C | > 100 µM (inactive) |  | > 100 µM (inactive) | > 100 µM (inactive) | > 100 µM (inactive) |  | > 100 µM (inactive) | > 100 µM (inactive) | > 100 µM (inactive) |  | > 100 µM (inactive) | > 100 µM (inactive) | > 100 µM (inactive) | > 100 µM (inactive) | > 100 µM (inactive) | > 100 µM (inactive) | > 100 µM (inactive) | > 100 µM (inactive) | 72.8 µM (inactive) | 
14 | O=C(NC1C=CCC2C(=O)N(c3ccccc3)C(=O)C12)OCc1ccccc1 (centres undefined) | > 100 µM (inactive) | > 100 µM (inactive) | > 100 µM (inactive) | > 100 µM (inactive) | > 100 µM (inactive) |  | > 100 µM (inactive) | > 100 µM (inactive) | 97.3 µM (inactive) |  | > 100 µM (inactive) | 57.7 µM (inactive) | > 100 µM (inactive) | > 100 µM (inactive) | > 100 µM (inactive) | > 100 µM (inactive) | > 100 µM (inactive) | > 100 µM (inactive) | > 100 µM (inactive) | 
15 | O=C(O)C1=CNC(C(=O)O)=NN1 | > 100 µM (inactive) | > 100 µM (inactive) | > 100 µM (inactive) | > 100 µM (inactive) | > 100 µM (inactive) |  | > 100 µM (inactive) | > 100 µM (inactive) |  |  | > 100 µM (inactive) | > 100 µM (inactive) | > 100 µM (inactive) | > 100 µM (inactive) | > 100 µM (inactive) | > 100 µM (inactive) |  | > 100 µM (inactive) | > 100 µM (inactive) | 
16 | CC1(C)CC(=O)C(=CNC(=S)c2ccccc2)C(=O)C1 | > 100 µM (inactive) | > 100 µM (inactive) | > 100 µM (inactive) | > 100 µM (inactive) | > 100 µM (inactive) | > 100 µM (inactive) | > 100 µM (inactive) | > 100 µM (inactive) | > 100 µM (inactive) | > 100 µM (inactive) |  | > 100 µM (inactive) | > 100 µM (inactive) | > 100 µM (inactive) | > 100 µM (inactive) | > 100 µM (inactive) | > 100 µM (inactive) | > 100 µM (inactive) |  | > 100 µM (inactive)
